Read-outs that look alike come from different tables or passages of the source.
Columns and labels:
HsrA = target: T1, HsrA (Helicobacter pylori, UniProt O25684); assay: SPR (Biacore T200, […] model); also EMSA inhibition of HsrA-DNA binding
T1 construct: gene HP_1043

[1] = target: T2, HsrA (Helicobacter pylori (strain of the recombinant protein not stated)) (UniProt O25684); assay: EMSA; conditions: EMSA binding buffer (Beyotime GS005, composition and pH not stated), 25 uL, 4 uM HsrA, 50 ng each DNA, 25 C 30 min; 5% native PAGE, 0.5x TBE
T2 sequence: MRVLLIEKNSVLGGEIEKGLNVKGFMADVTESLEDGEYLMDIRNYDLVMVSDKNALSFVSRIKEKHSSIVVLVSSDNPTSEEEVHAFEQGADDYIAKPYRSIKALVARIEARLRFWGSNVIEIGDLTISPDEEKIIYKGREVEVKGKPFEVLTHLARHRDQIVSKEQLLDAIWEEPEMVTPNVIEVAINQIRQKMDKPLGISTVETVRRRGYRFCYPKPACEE

T1 sequence (O25684 entry or part of it): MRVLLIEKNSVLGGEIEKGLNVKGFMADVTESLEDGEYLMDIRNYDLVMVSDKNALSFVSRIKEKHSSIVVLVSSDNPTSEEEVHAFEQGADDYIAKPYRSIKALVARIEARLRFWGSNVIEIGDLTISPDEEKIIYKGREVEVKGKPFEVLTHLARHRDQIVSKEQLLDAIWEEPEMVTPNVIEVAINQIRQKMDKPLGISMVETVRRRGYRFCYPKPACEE

Compound: c1cc2c(cc1O[C@H]1OC[C@H]3[C@@H]1CO[C@@H]3c1ccc3c(c1)OCO3)OCO2 [compound 3, Sesamolin]
- Kd (HsrA): 17.1 nM

Compound: c1c2c(cc3c1OCO3)-c1cc3ccc4c(c3c[n+]1CC2)OCO4 [compound 6, Coptisine]
- Kd (HsrA; read-out: Kd): 400 nM

Compound: GCCAAAACGCCTAAAGCCATGATAACCTTTTTCATCGTTTGTCTCCTCTACTTATCAAAATGATCTTAAAATGATACAATTACAAGTTTAAGTTTTGCTTAAAAATGAAGTGAAAATGAGAGAAATAAATATGATTTTATACATTCATATCCCCTTTTGTGAAAATAAATGCGGTTATTGCGCTTTCAA (double strand) [hp1227 promoter probe]
- binding [1]: binds

— PMC12658632, “Discovery of Sesamolin as a Potential Anti-Helicobacter pylori Agent by Virtual Screening against the Essential Response Regulator HsrA with In Vitro Evaluation” (ACS Omega, 2025)
